Measurements reported in patent publication US9296723B2, “NAMPT inhibitors” (AbbVie Inc., priority 2012, dated 2016).

How the values were obtained:
[1] = test system: PC3 cells; assay: NAMPT Cell Proliferation Assay (Cell Titer Glo); format: cell-based; settings: Homo sapiens, PC-3, 120 h, incubated 5 days, cell viability
Method: NAMPT Cell Proliferation Assay
PC3 cells were seeded in 96-well black plates (Corning #3904) at 500 cells/well in 90 µl of RPMI media containing 10% heat-inactivated FBS and incubated overnight at 37° C. and 5% CO2 to allow cells to attach to wells. The following day, test compounds were serially diluted in neat DMSO to 1000× final concentrations prior to dilution with RPMI media to 10× and 1% DMSO. Ten L of the 10× compounds were then transferred to wells containing cells to produce a dose response of 10-fold dilutions from […]. Cells were incubated for 5 days at 37° C. and 5% CO2, then cell viability was measured using Cell Titer Glo reagent (Promega #G7571). Percent inhibition values were calculated and fitted to a sigmoidal dose response curves using Assay Explorer software to determine IC50s.

[2] = molecular target: NAMPT (Homo sapiens, UniProt P43490); assay: Time-Resolved Fluorescence Resonance Energy Transfer (TR-FRET) Binding Assay of NAMPT; settings: 6.8 nM NAMPT, 200 nM probe, equilibrated 3 hours, no substrates
Sequence of NAMPT (P43490 whole entry): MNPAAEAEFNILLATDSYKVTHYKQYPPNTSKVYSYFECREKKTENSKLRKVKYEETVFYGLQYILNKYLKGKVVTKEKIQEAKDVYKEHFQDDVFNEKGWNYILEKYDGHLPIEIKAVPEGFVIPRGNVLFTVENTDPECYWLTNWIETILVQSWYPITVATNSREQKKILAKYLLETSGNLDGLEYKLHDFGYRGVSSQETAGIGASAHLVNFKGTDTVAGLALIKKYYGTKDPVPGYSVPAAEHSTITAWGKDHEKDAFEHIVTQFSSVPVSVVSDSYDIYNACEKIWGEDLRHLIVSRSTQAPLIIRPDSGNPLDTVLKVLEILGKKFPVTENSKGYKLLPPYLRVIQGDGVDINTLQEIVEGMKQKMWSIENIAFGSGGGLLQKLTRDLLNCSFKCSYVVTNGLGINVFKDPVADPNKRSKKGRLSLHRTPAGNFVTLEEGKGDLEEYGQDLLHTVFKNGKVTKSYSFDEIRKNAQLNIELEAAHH
Method: Determination of the utility of compounds having Formula (I) as binders to and inhibitors of NAMPT was performed using Time-Resolved Fluorescence Resonance Energy Transfer (TR-FRET) binding assays.
Time-Resolved Fluorescence Resonance Energy Transfer (TR-FRET) Binding Assay of NAMPT
Six L were transferred to 384-well low-volume plates ([…] #3673). To this, 12 L of a 1.5× solution containing enzyme, probe and antibody were added. […] Reactions were equilibrated at room temperature for 3 hours prior to reading on an Envision multi-label plate reader (Perkin Elmer; Ex=337 nm, Em=520 and 495 nm). Time-resolved FRET ratios (Em520/Em495) were normalized to controls, plotted as a function of compound concentration and fit with the four-parameter logistic equation to determine IC50s.

| SMILES | IC50 [1] | IC50 [2] |
| --- | --- | --- |
| CC1(C(=O)N2CCC(Cc3ccc(NC(=O)N4CC(c5cccnn5)C4)cc3)CC2)CC1 [Example 357, N-[4-({1-[(1-methylcyclopropyl)carbonyl]piperidin-4-yl}methyl)phenyl]-3-(pyridazin-3-yl)azetidine-1-carboxamide] | 703 nM | – |
| O=C(CN1CCCC1)N1CCC(c2ccc(NC(=O)N3CC(c4cccnc4)C3)cc2)C1 (stereo not drawn) [Example 265, 3-(pyridin-3-yl)-N-{4-[1-(pyrrolidin-1-ylacetyl)pyrrolidin-3-yl]phenyl}azetidine-1-carboxamide] | 691 nM | 191 nM |
| CC(C)C(=O)N1CC[C@@H](Oc2ccc(NC(=O)N3CC(c4cccnc4)C3)cc2)C1 [Example 77, N-(4-{[(3R)-1-(2-methylpropanoyl)pyrrolidin-3-yl]oxy}phenyl)-3-(pyridin-3-yl)azetidine-1-carboxamide] | 17.3 nM | 61.9 nM |
| O=C(Nc1ccc(C2CCN(C(=O)c3ccccc3F)CC2)cc1)N1CC(c2cccnn2)C1 [Example 337, N-{4-[1-(2-fluorobenzoyl)piperidin-4-yl]phenyl}-3-(pyridazin-3-yl)azetidine-1-carboxamide] | 55.5 nM | – |
| CC(C)(C)C(=O)N1CC[C@@H](Oc2ccc(NC(=O)N3CC(c4cccnc4)C3)cc2)C1 [Example 322, N-(4-{[(3R)-1-(2,2-dimethylpropanoyl)pyrrolidin-3-yl]oxy}phenyl)-3-(pyridin-3-yl)azetidine-1-carboxamide] | 12.5 nM | 34.9 nM |
| O=C(CC1CC1)N1CC[C@@H](Oc2ccc(NC(=O)N3CC(c4cccnc4)C3)cc2)C1 [Example 81, N-(4-{[(3R)-1-(cyclopropylacetyl)pyrrolidin-3-yl]oxy}phenyl)-3-(pyridin-3-yl)azetidine-1-carboxamide] | 17.8 nM | 30.9 nM |
| O=C(Nc1ccc(OC2CN(C(=O)c3ccco3)C2)cc1)N1CC(c2cccnc2)C1 [Example 115, N-(4-{[1-(furan-2-ylcarbonyl)azetidin-3-yl]oxy}phenyl)-3-(pyridin-3-yl)azetidine-1-carboxamide] | 6.11 nM | 9.22 nM |
| O=C(Nc1ccc(C2CCN(C(=O)[C@H]3CCOC3)CC2)cc1)N1CC(c2cccnc2)C1 [Example 159, 3-(pyridin-3-yl)-N-(4-{1-[(3S)-tetrahydrofuran-3-ylcarbonyl]piperidin-4-yl}phenyl)azetidine-1-carboxamide] | 74.5 nM | – |
| O=C(Nc1ccc(O[C@@H]2CCN(C(=O)[C@H]3CCCO3)C2)cc1)N1CC(c2cccnc2)C1 [Example 79, 3-(pyridin-3-yl)-N-[4-({(3R)-1-[(2R)-tetrahydrofuran-2-ylcarbonyl]pyrrolidin-3-yl}oxy)phenyl]azetidine-1-carboxamide] | 41.4 nM | 92.9 nM |
| O=C(CC(F)(F)F)N1CCC(c2ccc(NC(=O)N3CC(c4cccnc4)C3)cc2)CC1 [Example 58, 3-(pyridin-3-yl)-N-{4-[1-(3,3,3-trifluoropropanoyl)piperidin-4-yl]phenyl}azetidine-1-carboxamide] | 7.86 nM | 17.4 nM |
| O=C(Nc1ccc(C2CCN(C(=O)[C@H]3CCOC3)CC2)cc1)N1CC(c2cnccc2Cl)C1 [Example 160, 3-(4-chloropyridin-3-yl)-N-(4-{1-[(3S)-tetrahydrofuran-3-ylcarbonyl]piperidin-4-yl}phenyl)azetidine-1-carboxamide] | 639 nM | – |
| CC(C)C(=O)N1CCC(Cc2ccc(NC(=O)N3CC(c4cccnn4)C3)cc2)CC1 [Example 354, N-(4-{[1-(2-methylpropanoyl)piperidin-4-yl]methyl}phenyl)-3-(pyridazin-3-yl)azetidine-1-carboxamide] | 994 nM | – |
| O=C(Nc1ccc(C2CCN(C(=O)C3CCC3)CC2)cc1)N1CC(c2cccnn2)C1 [Example 343, N-{4-[1-(cyclobutylcarbonyl)piperidin-4-yl]phenyl}-3-(pyridazin-3-yl)azetidine-1-carboxamide] | 831 nM | – |
| O=C(CC(F)(F)F)N1CCC(c2ccc(NC(=O)N3CC(c4cccnn4)C3)cc2)CC1 [Example 345, 3-(pyridazin-3-yl)-N-{4-[1-(3,3,3-trifluoropropanoyl)piperidin-4-yl]phenyl}azetidine-1-carboxamide] | 1130 nM | – |
| O=C(Nc1ccc(CC2CCN(C(=O)c3ccccc3)CC2)cc1)N1CC(c2cccnn2)C1 [Example 348, N-{4-[(1-benzoylpiperidin-4-yl)methyl]phenyl}-3-(pyridazin-3-yl)azetidine-1-carboxamide] | 803 nM | – |
| O=C(Nc1ccc(C2CCN(C(=O)C3CC3)CC2)cc1)N1CC(c2cccnn2)C1 [Example 340, N-{4-[1-(cyclopropylcarbonyl)piperidin-4-yl]phenyl}-3-(pyridazin-3-yl)azetidine-1-carboxamide] | 2450 nM | – |

| SMILES | IC50 [1] | IC50 [2] |
| --- | --- | --- |
| CC(=O)N1CCC(c2ccc(NC(=O)N3CC(c4cccnn4)C3)cc2)CC1 [Example 341, N-[4-(1-acetylpiperidin-4-yl)phenyl]-3-(pyridazin-3-yl)azetidine-1-carboxamide] | 8940 nM | – |
| O=C(CC1CC1)N1CCC(c2ccc(NC(=O)N3CC(c4cccnn4)C3)cc2)CC1 [Example 347, N-{4-[1-(cyclopropylacetyl)piperidin-4-yl]phenyl}-3-(pyridazin-3-yl)azetidine-1-carboxamide] | 1550 nM | – |
| O=C(Nc1ccc(C2CCN(C(=O)C3CCOC3)CC2)cc1)N1CC(c2cccnc2)C1 (stereo not drawn) [Example 53, 3-(pyridin-3-yl)-N-{4-[1-(tetrahydrofuran-3-ylcarbonyl)piperidin-4-yl]phenyl}azetidine-1-carboxamide] | 13.8 nM | – |
| O=C(CCC(F)(F)F)N1CCC(c2ccc(NC(=O)N3CC(c4cccnn4)C3)cc2)CC1 [Example 344, 3-(pyridazin-3-yl)-N-{4-[1-(4,4,4-trifluorobutanoyl)piperidin-4-yl]phenyl}azetidine-1-carboxamide] | 7670 nM | – |
| CCC(CC)C(=O)N1CCC(Cc2ccc(NC(=O)N3CC(c4cccnn4)C3)cc2)CC1 [Example 352, N-(4-{[1-(2-ethylbutanoyl)piperidin-4-yl]methyl}phenyl)-3-(pyridazin-3-yl)azetidine-1-carboxamide] | 607 nM | – |
| CC(C)(C)CC(=O)N1CCC(c2ccc(NC(=O)N3CC(c4cccnn4)C3)cc2)CC1 [Example 342, N-{4-[1-(3,3-dimethylbutanoyl)piperidin-4-yl]phenyl}-3-(pyridazin-3-yl)azetidine-1-carboxamide] | 390 nM | – |
| Cc1ccccc1C(=O)N1CCC(c2ccc(NC(=O)N3CC(c4cccnn4)C3)cc2)CC1 [Example 338, N-{4-[1-(2-methylbenzoyl)piperidin-4-yl]phenyl}-3-(pyridazin-3-yl)azetidine-1-carboxamide] | 587 nM | – |
| CC(C)(C)CC(=O)N1CCC(Cc2ccc(NC(=O)N3CC(c4cccnn4)C3)cc2)CC1 [Example 351, N-(4-{[1-(3,3-dimethylbutanoyl)piperidin-4-yl]methyl}phenyl)-3-(pyridazin-3-yl)azetidine-1-carboxamide] | 655 nM | – |
| CC(C)(C)C(=O)N1CCC(Cc2ccc(NC(=O)N3CC(c4cccnn4)C3)cc2)CC1 [Example 350, N-(4-{[1-(2,2-dimethylpropanoyl)piperidin-4-yl]methyl}phenyl)-3-(pyridazin-3-yl)azetidine-1-carboxamide] | 743 nM | – |
| O=C(Nc1ccc(C2CCN(C(=O)c3ccccc3)CC2)cc1)N1CC(c2cccnn2)C1 [Example 336, N-[4-(1-benzoylpiperidin-4-yl)phenyl]-3-(pyridazin-3-yl)azetidine-1-carboxamide] | 222 nM | – |
| O=C(Nc1ccc(CC2CCN(C(=O)c3ccccc3F)CC2)cc1)N1CC(c2cccnn2)C1 [Example 349, N-(4-{[1-(2-fluorobenzoyl)piperidin-4-yl]methyl}phenyl)-3-(pyridazin-3-yl)azetidine-1-carboxamide] | 772 nM | – |
| CC(=O)N1CCC(Cc2ccc(NC(=O)N3CC(c4cccnn4)C3)cc2)CC1 [Example 355, N-{4-[(1-acetylpiperidin-4-yl)methyl]phenyl}-3-(pyridazin-3-yl)azetidine-1-carboxamide] | 7310 nM | – |
| CC[C@H](C)C(=O)N1CCC(Cc2ccc(NC(=O)N3CC(c4cccnn4)C3)cc2)CC1 [Example 356, N-[4-({1-[(2S)-2-methylbutanoyl]piperidin-4-yl}methyl)phenyl]-3-(pyridazin-3-yl)azetidine-1-carboxamide] | 791 nM | – |
| CC1(C(=O)N2CCC(c3ccc(NC(=O)N4CC(c5cccnn5)C4)cc3)CC2)CC1 [Example 346, N-(4-{1-[(1-methylcyclopropyl)carbonyl]piperidin-4-yl}phenyl)-3-(pyridazin-3-yl)azetidine-1-carboxamide] | 843 nM | – |
| CC(C)(C)C(=O)N1CCC(c2ccc(NC(=O)N3CC(c4cccnn4)C3)cc2)CC1 [Example 339, N-{4-[1-(2,2-dimethylpropanoyl)piperidin-4-yl]phenyl}-3-(pyridazin-3-yl)azetidine-1-carboxamide] | 668 nM | – |
| O=C(Nc1ccc(C2CN(CC3CCOC3)C2)cc1)N1CC(c2cccnc2)C1 (stereo not drawn) [Example 256, 3-(pyridin-3-yl)-N-{4-[1-(tetrahydrofuran-3-ylmethyl)azetidin-3-yl]phenyl}azetidine-1-carboxamide] | – | 830 nM |
